The record followed here is patent US20260224584A1 (priority 2023, published 2026).

Structures can show the parent of a compound that is named as a salt.

The assay concerns Human WB (90%) CD69. The experiment in a line: Human WB (90%) CD69. To be noted: read-out: Human WB (90%) CD69 IC50 (nM); human whole blood (90%), CD69 readout. The class given is cell-based.
Regarding `CC(C)N1CCN(c2ccc(-c3cc(NCCN4CCOCC4)c4nc(C5CC5)n(C)c4c3)cc2)CC1` [Example 31, 2-cyclopropyl-6-(4-(4-isopropylpiperazin-1-yl)phenyl)-1-methyl-N-(2-morpholinoethyl)-1H-benzo[d]imidazol-4-amine, 2 TFA], the IC50 (commonly the concentration at which inhibition is half-maximal) was 302 nM. On to `CC(C)N1CCN(c2ccc(-c3cc(NCCN4CCOCC4)c4nc(C5CCC5)n(C)c4c3)cc2)CC1` [Example 32, 2-cyclobutyl-6-(4-(4-isopropylpiperazin-1-yl)phenyl)-1-methyl-N-(2-morpholinoethyl)-1H-benzo[d]imidazol-4-amine, 2 TFA], for which the IC50 worked out at 79 nM.

With `Cc1cc(C)nc(Nc2cc(-c3ccc(N4CCN(C(C)C)CC4)cc3)cc3c2nc(C2CC2)n3C)c1` [Example 33, 2-cyclopropyl-N-(4,6-dimethylpyridin-2-yl)-6-(4-(4-isopropylpiperazin-1-yl)phenyl)-1-methyl-1H-benzo[d]imidazol-4-amine, TFA], the IC50 worked out at 245 nM.

Regarding `Cc1cc(C)nc(Nc2cc(-c3ccc(N4CCN(C(C)C)CC4)cc3)cc3c2nc(C2CCC2)n3C)c1` [Example 34, 2-cyclobutyl-N-(4,6-dimethylpyridin-2-yl)-6-(4-(4-isopropylpiperazin-1-yl)phenyl)-1-methyl-1H-benzo[d]imidazol-4-amine, TFA], the IC50 amounted to 587 nM. Regarding `CC(C)N1CCN(c2ccc(-c3cc(NCCN4CCC(F)(F)CC4)c4nc(-c5ccc(S(C)(=O)=O)cc5)n(C)c4c3)cc2)CC1` [Example 35, N-(2-(4,4-difluoropiperidin-1-yl)ethyl)-6-(4-(4-isopropylpiperazin-1-yl)phenyl)-1-methyl-2-(4-(methylsulfonyl)phenyl)-1H-benzo[d]imidazol-4-amine], the IC50 was 571 nM. Next, `CC(C)N1CCN(c2ccc(-c3cc(NCc4ccc(CN5CCOCC5)cc4)c4nc(-c5ccc(S(C)(=O)=O)cc5)n(C)c4c3)cc2)CC1` [Example 36, 6-(4-(4-isopropylpiperazin-1-yl)phenyl)-1-methyl-2-(4-(methylsulfonyl)phenyl)-N-(4-(morpholinomethyl)benzyl)-1H-benzo[d]imidazol-4-amine]: 221 nM; `CC(C)N1CCN(c2ccc(-c3cc(Nc4ccc(N5CCOCC5)nn4)c4nc(-c5ccc(S(C)(=O)=O)cc5)n(C)c4c3)cc2)CC1` [Example 37, 6-(4-(4-isopropylpiperazin-1-yl)phenyl)-1-methyl-2-(4-(methylsulfonyl)phenyl)-N-(6-morpholinopyridazin-3-yl)-1H-benzo[d]imidazol-4-amine, TFA]: 167 nM; `Cc1cc(C)nc(Nc2cc(-c3ccc(N4CCN(C5CCOCC5)CC4)cc3)cc3c2nc(-c2ccc(S(C)(=O)=O)cc2)n3C)c1` [Example 38, N-(4,6-dimethylpyridin-2-yl)-1-methyl-2-(4-(methylsulfonyl)phenyl)-6-(4-(4-(tetrahydro-2H-pyran-4-yl)piperazin-1-yl)phenyl)-1H-benzo[d]imidazol-4-amine]: 899 nM. As to `CC(C)N1CCN(c2ccc(-c3cc(NCCN4CCOCC4)c4ncn(C)c4c3)cc2)CC1` [Example 39, 6-(4-(4-isopropylpiperazin-1-yl)phenyl)-1-methyl-N-(2-morpholinoethyl)-1H-benzo[d]imidazol-4-amine, 2 TFA], the IC50 was determined as 283 nM. Regarding `Cc1cc(C)nc(Nc2cc(-c3ccc(N4CCN(C(C)C)CC4)cc3)cc3c2ncn3C)c1` [Example 40, N-(4,6-dimethylpyridin-2-yl)-6-(4-(4-isopropylpiperazin-1-yl)phenyl)-1-methyl-1H-benzo[d]imidazol-4-amine], the IC50 was 565 nM.

As to `Cc1cc(C)nc(Nc2cc(-c3ccc(N4CCN(C(C)C)CC4)cc3)cc3c2nc(C2CCS(=O)(=O)CC2)n3C)c1` [Example 41, 4-(4-((4,6-dimethylpyridin-2-yl)amino)-6-(4-(4-isopropylpiperazin-1-yl)phenyl)-1-methyl-1H-benzo[d]imidazol-2-yl)tetrahydro-2H-thiopyran 1,1-dioxide. TFA], the IC50 was determined as 128 nM. In the case of `CC(C)N1CCN(c2ccc(-c3cc(NCCN4CCOCC4)c4nc(C5CCS(=O)(=O)CC5)n(C)c4c3)cc2)CC1` [Example 42, 4-(6-(4-(4-isopropylpiperazin-1-yl)phenyl)-1-methyl-4-((2-morpholinoethyl)amino)-1H-benzo[d]imidazol-2-yl)tetrahydro-2H-thiopyran 1,1-dioxide], the IC50 was determined as 925 nM. Consider `CC(C)N1CCN(c2ccc(-c3cc(NCc4ccc(CN5CCOCC5)cc4)c4nc(C5CCS(=O)(=O)CC5)n(C)c4c3)cc2)CC1` [Example 43, 4-(6-(4-(4-isopropylpiperazin-1-yl)phenyl)-1-methyl-4-((4-(morpholinomethyl)benzyl)amino)-1H-benzo[d]imidazol-2-yl)tetrahydro-2H-thiopyran 1,1-dioxide, 2 TFA], for which the IC50 turned out to be 396 nM. For `Cc1cc(C)nc(Nc2cc(-c3ccc(N4CCN(C(C)C)CC4)cc3)cc3c2nc(C2COC2)n3C)c1` [Example 44, N-(4,6-dimethylpyridin-2-yl)-6-(4-(4-isopropylpiperazin-1-yl)phenyl)-1-methyl-2-(oxetan-3-yl)-1H-benzo[d]imidazol-4-amine], the IC50 stood at 282 nM. For the compound `CC(C)N1CCN(c2ccc(-c3cc(NCCN4CCOCC4)c4nc(C5COC5)n(C)c4c3)cc2)CC1` [Example 45, 6-(4-(4-isopropylpiperazin-1-yl)phenyl)-1-methyl-N-(2-morpholinoethyl)-2-(oxetan-3-yl)-1H-benzo[d]imidazol-4-amine], the IC50 worked out at 473 nM. On to `CC(C)N1CCN(c2ccc(-c3cc(NCc4ccc(CN5CCOCC5)cc4)c4nc(C5COC5)n(C)c4c3)cc2)CC1` [Example 46, 6-(4-(4-isopropylpiperazin-1-yl)phenyl)-1-methyl-N-(4-(morpholinomethyl)benzyl)-2-(oxetan-3-yl)-1H-benzo[d]imidazol-4-amine], for which the IC50 was found to be 534 nM. As to `CC(C)N1CCN(c2ccc(-c3cc(NCCN4CCOCC4)c4nc(C5CCOCC5)n(C)c4c3)cc2)CC1` [Example 47, 6-(4-(4-isopropylpiperazin-1-yl)phenyl)-1-methyl-N-(2-morpholinoethyl)-2-(tetrahydro-2H-pyran-4-yl)-1H-benzo[d]imidazol-4-amine, 2 TFA], the IC50 was found to be 181 nM. With `Cc1cc(C)nc(Nc2cc(-c3ccc(N4CCN(C(C)C)CC4)cc3)cc3c2nc(C2CCOCC2)n3C)c1` [Example 48, N-(4,6-dimethylpyridin-2-yl)-6-(4-(4-isopropylpiperazin-1-yl)phenyl)-1-methyl-2-(tetrahydro-2H-pyran-4-yl)-1H-benzo[d]imidazol-4-amine, TFA], the IC50 turned out to be 109 nM.

With `Cc1cc(C)nc(Nc2cc(-c3ccc(N4CCN(C(C)C)CC4)cc3)cc3c2nc(-c2cnoc2)n3C)c1` [Example 49, N-(4,6-dimethylpyridin-2-yl)-6-(4-(4-isopropylpiperazin-1-yl)phenyl)-2-(isoxazol-4-yl)-1-methyl-1H-benzo[d]imidazol-4-amine, TFA], the IC50 worked out at 1090 nM. With `CC(C)N1CCN(c2ccc(-c3cc(NC4CCN(S(C)(=O)=O)CC4)c4nc(C5CCN(S(C)(=O)=O)CC5)n(C)c4c3)cc2)CC1` [Example 50, 6-(4-(4-isopropylpiperazin-1-yl)phenyl)-1-methyl-N,2-bis(1-(methylsulfonyl)piperidin-4-yl)-1H-benzo[d]imidazol-4-amine], the IC50 came to 1530 nM.

For the compound `Cc1cc(C)nc(Nc2cc(-c3ccc(N4CCN(C(C)C)CC4)cc3)cc3c2nc(-c2cc[nH]c2)n3C)c1` [Example 51, N-(4,6-dimethylpyridin-2-yl)-6-(4-(4-isopropylpiperazin-1-yl)phenyl)-1-methyl-2-(1H-pyrrol-3-yl)-1H-benzo[d]imidazol-4-amine], the IC50 was 61 nM.

Take `Cc1cc(C)nc(Nc2cc(-c3ccc(N4CCN(C(C)C)CC4)cc3)cc3c2nc(-c2ccco2)n3C)c1` [Example 52, N-(4,6-dimethylpyridin-2-yl)-2-(furan-2-yl)-6-(4-(4-isopropylpiperazin-1-yl)phenyl)-1-methyl-1H-benzo[d]imidazol-4-amine, TFA]: the IC50 stood at 62 nM. As to `Cc1cc(C)nc(Nc2cc(-c3ccc(N4CCN(C(C)C)CC4)cc3)cc3c2nc(-c2cc[nH]n2)n3C)c1` [Example 53, N-(4,6-dimethylpyridin-2-yl)-6-(4-(4-isopropylpiperazin-1-yl)phenyl)-1-methyl-2-(1H-pyrazol-3-yl)-1H-benzo[d]imidazol-4-amine, TFA], the 50% inhibitory concentration (IC50) is 75 nM. Turning to `CC(C)N1CCN(c2ccc(-c3cc(NC4CCN(S(C)(=O)=O)CC4)c4nc(N(C)C)n(C)c4c3)cc2)CC1` [Example 54, 6-(4-(4-isopropylpiperazin-1-yl)phenyl)-N2,N2,1-trimethyl-N4-(1-(methylsulfonyl)piperidin-4-yl)-1H-benzo[d]imidazole-2,4-diamine], the IC50 was 673 nM. For `CC(C)N1CCN(c2ccc(-c3cc(NCc4cccc(S(C)(=O)=O)c4)c4nc(-c5ccc(S(C)(=O)=O)cc5)n(C)c4c3)cc2)CC1` [Example 55, 6-(4-(4-isopropylpiperazin-1-yl)phenyl)-1-methyl-N-(3-(methylsulfonyl)benzyl)-2-(4-(methylsulfonyl)phenyl)-1H-benzo[d]imidazol-4-amine], the IC50 worked out at 1130 nM. Take `CC(C)N1CCN(c2ccc(-c3cc(NCc4ccc(S(C)(=O)=O)cc4)c4nc(-c5ccc(S(C)(=O)=O)cc5)n(C)c4c3)cc2)CC1` [Example 56, 6-(4-(4-isopropylpiperazin-1-yl)phenyl)-1-methyl-N-(4-(methylsulfonyl)benzyl)-2-(4-(methylsulfonyl)phenyl)-1H-benzo[d]imidazol-4-amine, TFA]: the IC50 was found to be 1640 nM. Turning to `Cc1nc2c(NC3CCN(C4COC4)CC3)cc(-c3ccc(N4CCN(C(C)C)CC4)cc3)cc2n1C` [Example 57, 6-(4-(4-isopropylpiperazin-1-yl)phenyl)-1,2-dimethyl-N-(1-(oxetan-3-yl)piperidin-4-yl)-1H-benzo[d]imidazol-4-amine], the 50% inhibitory concentration (IC50) came to 188 nM. Next, `Cc1nc2c(N3CCN(C4COC4)CC3)cc(-c3ccc(N4CCN(C(C)C)CC4)cc3)cc2n1C` [Example 58, 6-(4-(4-isopropylpiperazin-1-yl)phenyl)-1,2-dimethyl-4-(4-(oxetan-3-yl)piperazin-1-yl)-1H-benzo[d]imidazole]: 860 nM.
